Here are results for one substance from US11712466B2, “Vaccine composition” (TOHOKU UNIVERSITY, priority 2017, dated 2023).

“Also recorded” adds a separate entry of the source. Ends that are not written are not given here.

The assay relates to Lewis lung cancer cells (LLC). As to the kind of experiment: Subcutaneous implant model, tumor growth inhibitory effect (LLC). In kind it is in vivo, mouse. The settings on record: immunized C57BL/6J mice, cells implanted s.c. on day 29, measured 14 days after implantation. How it is done: After 2 weeks from the administration of each peptide vaccine and incomplete Freund's adjuvant in Example 1 (on day 29 after the initial peptide vaccine administration), mouse-derived tumor cells were implanted in an immunized mouse, whereby a subcutaneous implant model was prepared. Specifically, mouse lung cancer cells (Lewis lung cancer cells (LLC)) or mouse melanoma cells (B16F1) (all have C57BL/6J as a genetic background) cultured in a RPMI+10% FBS medium were collected by centrifugation, and a cell suspension (1.0×10^8 cells/mL) was prepared with a serum-free medium, and 0.1 mL (1.0×10^7 cells/animal) of the cell suspension was implanted in a right axillary subcutaneous region of a mouse using a 27G injection needle and a syringe, whereby a subcutaneous implant model of tumor cells was prepared.

With “MTG peptide vaccine: MTG peptide MTGSAADTHR (SEQ ID NO: 4) conjugated with KLH as carrier by a glutaraldehyde method (also: conjugated with KLH by glutaraldehyde)”, the “tumor size (tumorigenesis), Lewis lung cancer cells” value is recorded as “marked inhibition of tumorigenesis; also recorded: marked inhibition of tumor growth”.
